Laboratory results reported in ChEMBL document CHEMBL2424513, “Design, synthesis and biological studies of survivin dimerization modulators that prolong mitotic cycle” (Bioorg Med Chem Lett, 2013).
Calls of active or inactive are those of the source. The rule behind the calls is not given here.

Tests used:
[1] = target: Baculoviral IAP repeat-containing protein 5 (Homo sapiens) (UniProt O15392); assay: Modulation of GFP-tagged survivin dimerization in human PC3 cells assessed as defect in mitotic progression at 50 to 100 nM after 72 hrs by real-time video microscopy; type: cell-based; settings: PC-3
Sequence of Baculoviral IAP repeat-containing protein 5 (Homo sapiens) (O15392 whole entry, the tested form may be a part): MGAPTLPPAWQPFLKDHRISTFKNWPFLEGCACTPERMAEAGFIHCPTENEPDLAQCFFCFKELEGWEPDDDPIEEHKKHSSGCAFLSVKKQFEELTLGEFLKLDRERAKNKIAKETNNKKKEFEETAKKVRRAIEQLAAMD

[2] = target: Baculoviral IAP repeat-containing protein 5 (Homo sapiens) (UniProt O15392); assay: Modulation of GFP-tagged survivin dimerization in HUVEC assessed as defect in mitotic progression at 10 nM after 48 hrs by real-time video microscopy
[3] = target: Baculoviral IAP repeat-containing protein 5 (Homo sapiens) (UniProt O15392); assay: Modulation of GFP-tagged survivin dimerization in human PC3 cells assessed as distorted, diffused or decondensed CPC organization at 10 nM after 72 hrs by real-time video microscopy relative to control; type: cell-based; settings: PC-3
[4] = target: Baculoviral IAP repeat-containing protein 5 (Homo sapiens) (UniProt O15392); assay: Modulation of GFP-tagged survivin dimerization in HUVEC assessed as reduction in cell number at 50 to 100 nM by real-time video microscopy; settings: TDE = time-dependent effect
[5] = target: Baculoviral IAP repeat-containing protein 5 (Homo sapiens) (UniProt O15392); assay: Modulation of GFP-tagged survivin dimerization in HUVEC assessed as time length of mitosis at 100 nM after 48 hrs by real-time video microscopy (reference value: 51.2 +/- 2.3 mins)
[6] = target: Baculoviral IAP repeat-containing protein 5 (Homo sapiens) (UniProt O15392); assay: Modulation of GFP-tagged survivin dimerization in HUVEC assessed as reduction in cell number after 48 hrs by real-time video microscopy
[7] = target: Baculoviral IAP repeat-containing protein 5 (Homo sapiens) (UniProt O15392); assay: Modulation of GFP-tagged survivin dimerization in human PC3 cells assessed as distorted, diffused or decondensed CPC organization at 50 to 100 nM after 72 hrs by real-time video microscopy relative to control; type: cell-based; settings: PC-3
[8] = target: Baculoviral IAP repeat-containing protein 5 (Homo sapiens) (UniProt O15392); assay: Modulation of GFP-tagged survivin dimerization in HUVEC assessed as defect in mitotic progression at 50 to 100 nM after 48 hrs by real-time video microscopy relative to control
[9] = target: Baculoviral IAP repeat-containing protein 5 (Homo sapiens) (UniProt O15392); assay: Modulation of GFP-tagged survivin dimerization in HUVEC assessed as distorted, diffused or decondensed CPC organization at 50 to 100 nM after 48 hrs by real-time video microscopy relative to control
[10] = target: Baculoviral IAP repeat-containing protein 5 (Homo sapiens) (UniProt O15392); assay: Modulation of GFP-tagged survivin dimerization in HUVEC assessed as distorted, diffused or decondensed CPC organization at 10 nM after 48 hrs by real-time video microscopy relative to control
[11] = target: Baculoviral IAP repeat-containing protein 5 (Homo sapiens) (UniProt O15392); assay: Modulation of GFP-tagged survivin dimerization in human PC3 cells assessed as defect in mitotic progression at 10 nM after 72 hrs by real-time video microscopy; type: cell-based; settings: PC-3
[12] = target: Baculoviral IAP repeat-containing protein 5 (Homo sapiens) (UniProt O15392); assay: Modulation of GFP-tagged survivin dimerization in HUVEC assessed as reduction in cell number at 50 to 100 nM after 48 hrs by real-time video microscopy relative to control
[13] = target: Baculoviral IAP repeat-containing protein 5 (Homo sapiens) (UniProt O15392); assay: Modulation of GFP-tagged survivin dimerization in human PC3 cells assessed as reduction in cell number at 50 to 100 nM after 72 hrs by real-time video microscopy relative to control; type: cell-based; settings: PC-3

In the case of `N#Cc1c(-c2cc(OCc3ccccc3)cc(OCc3ccccc3)c2)cc(-c2cc(Cl)ccc2O)[nH]c1=O`, the Activity [1] is reported as “inactive”, the fold change (FC) [1] is reported as 2 and the Activity [2] is reported as “inactive”. The Activity [3] was “inactive”, the Activity [4] was “tde” and the TIME [5] was 2.57 h. The Activity [6] was “Dose-dependent effect”, the Activity [7] was “Active” and the Activity [8] was “inactive”. The fold change (FC) [8] was 2, the Activity [9] was “Active” and the Activity [10] was “inactive”. The Activity [11] was “inactive”.

With `N#Cc1c(-c2cccc(OCc3ccccc3)c2)cc(-c2cc(Cl)cc(I)c2O)[nH]c1=O` the Activity [1] was “Active”, the Activity [12] was 50% and the Activity [2] was “inactive”. For the same compound, the Activity [3] was “inactive”, the Activity [4] was “tde” and the Activity [6] was “Dose-dependent effect”. For the same compound, the Activity [7] was “Active”, the Activity [8] was “Active” and the Activity [13] was 50%. For the same compound, the Activity [9] was “Active”, the Activity [10] was “inactive” and the Activity [11] was “inactive”.

With `N#Cc1c(-c2ccccc2)cc(-c2cc(Cl)ccc2O)[nH]c1=O` the Activity [1] was “inactive”, the TIME [5] was 1.04 h and the Activity [8] was “inactive”.
